Experimental data taken from the supplement of paper PMC10307832.

How the values were obtained:
Experiment in all cases: relative viability (nuclei count vs DMSO), 5 days (fraction); higher = more cells survive
MK-2206 + Navitoclax = compound: NC1(c2ccc(-c3nc4ccn5c(=O)[nH]nc5c4cc3-c3ccccc3)cc2)CCC1 [MK-2206] + CC1(C)CCC(c2ccc(Cl)cc2)=C(CN2CCN(c3ccc(C(=O)NS(=O)(=O)c4ccc(N[C@H](CCN5CCOCC5)CSc5ccccc5)c(S(=O)(=O)C(F)(F)F)c4)cc3)CC2)C1 [Navitoclax] (partner 0.5 µM)
Procedure, shortened: (§1)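 One day after seeding in 1536-well plates, lung cancer cell lines were dosed by pin tool. Dosing was either single-drug or a fixed anchor-drug dose plus five library-drug doses (not always all listed) in √10 steps. After 5 days, nuclei were stained in one fix-and-stain step and counted on 4× images, and relative viability is the nuclei count of treated wells over that of vehicle wells, given as the median of duplicate plates.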

Pictilisib + Bortezomib = compound: CS(=O)(=O)N1CCN(Cc2cc3nc(-c4cccc5[nH]ncc45)nc(N4CCOCC4)c3s2)CC1 [Pictilisib] + CC(C)C[C@H](NC(=O)[C@H](Cc1ccccc1)NC(=O)c1cnccn1)B(O)O [Bortezomib] (partner 0.002 µM)
Procedure, shortened: as §1

MK-2206 + Pictilisib = compound: NC1(c2ccc(-c3nc4ccn5c(=O)[nH]nc5c4cc3-c3ccccc3)cc2)CCC1 [MK-2206] + CS(=O)(=O)N1CCN(Cc2cc3nc(-c4cccc5[nH]ncc45)nc(N4CCOCC4)c3s2)CC1 [Pictilisib] (partner 1 µM)
Procedure, shortened: as §1

Pictilisib + OSI-027 = compound: CS(=O)(=O)N1CCN(Cc2cc3nc(-c4cccc5[nH]ncc45)nc(N4CCOCC4)c3s2)CC1 [Pictilisib] + COc1cccc2cc(-c3nc([C@H]4CC[C@H](C(=O)O)CC4)n4ncnc(N)c34)[nH]c12 [OSI-027] (partner 0.5 µM)
Procedure, shortened: as §1

MK-2206 + Linsitinib = compound: NC1(c2ccc(-c3nc4ccn5c(=O)[nH]nc5c4cc3-c3ccccc3)cc2)CCC1 [MK-2206] + C[C@]1(O)C[C@@H](c2nc(-c3ccc4ccc(-c5ccccc5)nc4c3)c3c(N)nccn32)C1 [Linsitinib] (partner 1 µM)
Procedure, shortened: as §1

Cell Line	relative viability (MK-2206 + Navitoclax; first compound 0.01 µM)	relative viability (MK-2206 + Navitoclax; first compound 0.03162 µM)	relative viability (MK-2206 + Navitoclax; first compound 0.3162 µM)	relative viability (MK-2206 + Navitoclax; first compound 1 µM)	relative viability (Pictilisib + Bortezomib; first compound 0.02 µM)	relative viability (Pictilisib + Bortezomib; first compound 0.06325 µM)	relative viability (Pictilisib + Bortezomib; first compound 0.6325 µM)	relative viability (Pictilisib + Bortezomib; first compound 2 µM)	relative viability (MK-2206 + Pictilisib; first compound 0.01 µM)	relative viability (MK-2206 + Pictilisib; first compound 0.03162 µM)	relative viability (MK-2206 + Pictilisib; first compound 0.3162 µM)	relative viability (MK-2206 + Pictilisib; first compound 1 µM)	relative viability (Pictilisib + OSI-027; first compound 0.02 µM)	relative viability (Pictilisib + OSI-027; first compound 0.06325 µM)	relative viability (Pictilisib + OSI-027; first compound 0.6325 µM)	relative viability (Pictilisib + OSI-027; first compound 2 µM)	relative viability (MK-2206 + Linsitinib; first compound 0.01 µM)	relative viability (MK-2206 + Linsitinib; first compound 0.03162 µM)	relative viability (MK-2206 + Linsitinib; first compound 0.3162 µM)	relative viability (MK-2206 + Linsitinib; first compound 1 µM)
RERF-LC-KJ	0.836	1.28	0.708	0.69	1.13	1.13	1.09	0.672	0.586	0.481	0.553	0.445	0.531	0.559	0.402	0.371	0.848	0.864	0.9	0.789
NCI-H647	1.02	1.21	0.969	1.02	1.19	1.07	0.965	0.513	0.455	0.452	0.354	0.273	0.598	0.709	0.403	0.182	1.18	1.1	1.07	1.03
NCI-H1734	0.848	0.85	0.584	0.681	0.995	0.903	0.585	0.335	0.475	0.463	0.329	0.393	0.552	0.554	0.291	0.224	0.816	0.934	0.632	0.584
SK-LU-1	1.01	0.992	1.08	0.874	1.64	1.27	0.81	0.63	0.584	0.478	0.535	0.474	0.38	0.335	0.185	0.19	1.19	1.02	0.987	1.01
COR-L23	0.969	1.14	1.07	0.877	1.1	1.04	1.03	0.963	0.816	0.834	0.741	0.686	0.767	0.809	0.732	0.372	0.909	0.996	1	0.693
EMC-BAC-2	1.13	1.14	1.15	1.08	1.05	1.2	0.917	0.68	0.54	0.574	0.515	0.441	0.378	0.364	0.26	0.245	0.811	0.821	0.769	0.748
NCI-H1355	0.961	0.828	0.961	0.819	1.23	1.2	1.14	0.678	0.486	0.475	0.454	0.4	0.412	0.358	0.232	0.237	0.768	0.805	0.726	0.786
NCI-H1792	0.603	0.706	0.655	0.578	0.986	0.962	0.835	0.418	0.27	0.271	0.251	0.283	0.752	0.617	0.335	0.173	0.573	0.596	0.549	0.636
HOP-62	0.909	1.24	1.02	1.1	1.15	0.986	0.693	0.652	0.563	1.11	0.728	0.48	0.929	0.868	0.666	0.535	0.783	0.757	1.01	0.998
NCI-H2009	1.12	1.15	1.17	1.13	1.06	1.05	0.871	0.671	0.717	1.02	0.831	0.865	0.656	0.583	0.319	0.188	1.15	1.16	1.16	1.02
